ChEMBL document CHEMBL3714751, “Diaminopyrimidines as P2X3 and P2X2/3 modulators” (2009)
Activity calls are given as the source filed them. The rule behind the calls is not given here.

How the values were obtained:
[1] = target: T1, P2X purinoceptor 3 (Rattus norvegicus) (UniProt P49654); assay: Antagonist activity against rat P2X3 receptor expressed in CHOK1 cells assessed as inhibition of alpha,beta-meATP-induced calcium response incubated for 20 mins by Fluo-3AM dye based FLIPR assay; type: functional, cell-based; conditions: CHO-K1
T1 sequence (whole entry): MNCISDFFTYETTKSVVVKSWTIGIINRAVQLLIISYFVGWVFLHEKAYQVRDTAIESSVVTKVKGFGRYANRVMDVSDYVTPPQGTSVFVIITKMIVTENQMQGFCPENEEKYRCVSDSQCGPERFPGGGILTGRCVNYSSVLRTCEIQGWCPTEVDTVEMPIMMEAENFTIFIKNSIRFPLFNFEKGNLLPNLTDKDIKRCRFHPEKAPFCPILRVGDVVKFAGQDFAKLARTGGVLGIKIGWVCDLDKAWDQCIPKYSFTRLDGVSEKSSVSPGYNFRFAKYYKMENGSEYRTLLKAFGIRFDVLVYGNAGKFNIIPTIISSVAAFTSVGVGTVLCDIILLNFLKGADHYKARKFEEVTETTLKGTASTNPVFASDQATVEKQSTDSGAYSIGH

Canis familiaris [2] = assay: Cmax in dog assessed as 5-(5-Iodo-2-iso-propyl-4-methoxy-phenoxy)-pyrimidine-2,4-diamine level at 0.127 mmol administered orally by gavage after 24 hrs by HPLC method; type: ADME, organism-based, Canis lupus familiaris; design: dose 0.127 mmol, route oral; conditions: in vivo, po
Canis familiaris [3] = assay: AUC in dog assessed as 5-(5-Iodo-2-iso-propyl-4-methoxy-phenoxy)-pyrimidine-2,4-diamine level at 0.127 mmol administered orally by gavage after 24 hrs by HPLC method; type: ADME, organism-based, Canis lupus familiaris; design: dose 0.127 mmol, time < 24 hr, route oral; conditions: in vivo, po

Structure (SMILES)	inhibition [1]	Cmax (Canis familiaris [2]) [ng/mL]	AUC (Canis familiaris [3]) [ng·h/mL]
COc1cc(C(C)C)c(Oc2cnc(NC(=O)CN3CCC(N)CC3)nc2N)cc1I	Active	–	–
COc1cc(C(C)C)c(Oc2cnc(NC(=O)CNC3CCC(C)CC3)nc2N)cc1I (stereo not drawn)	Active	–	–
COc1cc(C(C)C)c(Oc2cnc(NC(=O)CNC3CCC3)nc2N)cc1I	Active	–	–
COc1cc(C(C)C)c(Oc2cnc(NC(=O)CN3CCN(CCCO)CC3)nc2N)cc1I	Active	–	–
COc1cc(C(C)C)c(Oc2cnc(NC(=O)CN3CCC(C(C)=O)CC3)nc2N)cc1I	Active	–	–
CCCNCC(=O)Nc1ncc(Oc2cc(I)c(OC)cc2C(C)C)c(N)n1	Active	–	–
COc1cc(C(C)C)c(Oc2cnc(NC(=O)CNC(C)(C)C)nc2N)cc1I	Active	–	–
COc1cc(C(C)C)c(Oc2cnc(NC(=O)CN3CCCC3)nc2N)cc1I	Active	–	–
C#Cc1cc(Oc2cnc(NC(=O)CN3CCN(C)CC3)nc2N)c(C(C)C)cc1OC	Active	–	–
COc1cc(C(C)C)c(Oc2cnc(NC(=O)CNC3CCCCC3)nc2N)cc1I	Active	–	–
COc1cc(C(C)C)c(Oc2cnc(NC(=O)CN3CCCCC3)nc2N)cc1I	Active	–	–
CCCN(CCC)CC(=O)Nc1ncc(Oc2cc(I)c(OC)cc2C(C)C)c(N)n1	Active	120	372
COc1cc(C(C)C)c(Oc2cnc(NC(=O)CNCC3CC3)nc2N)cc1I	Active	–	–
COc1cc(C(C)C)c(Oc2cnc(NC(=O)CN3CCN(CCO)CC3)nc2N)cc1I	Active	–	–
COc1cc(C(C)C)c(Oc2cnc(NC(=O)CNC3CCCC3)nc2N)cc1I	Active	–	–
COc1cc(C(C)C)c(Oc2cnc(NC(=O)CN3CC(C)OC(C)C3)nc2N)cc1I (stereo not drawn)	Active	–	–
COc1cc(C(C)C)c(Oc2cnc(NC(=O)CN(C)C)nc2N)cc1I	Active	–	–
COc1cc(C(C)C)c(Oc2cnc(NC(=O)CNCC(C)C)nc2N)cc1I	Active	–	–
COc1cc(C(C)C)c(Oc2cnc(NC(=O)CNC3CCN(C)CC3)nc2N)cc1I	Active	–	–
COc1cc(C(C)C)c(Oc2cnc(NC(=O)CN3CCNCC3)nc2N)cc1I	Active	–	–
COc1cc(C(C)C)c(Oc2cnc(NC(=O)CN3CCN(C)CC3)nc2N)cc1I	Active	–	–
COc1cc(C(C)C)c(Oc2cnc(NC(=O)CN3CCOCC3)nc2N)cc1I	Active	–	–
CCN(CCCCO)CC(=O)Nc1ncc(Oc2cc(I)c(OC)cc2C(C)C)c(N)n1	Active	–	–
COCCNCC(=O)Nc1ncc(Oc2cc(I)c(OC)cc2C(C)C)c(N)n1	Active	–	–
COc1cc(C(C)C)c(Oc2cnc(NC(=O)CN(C)C3CCCCC3)nc2N)cc1I	Active	–	–
CCC(CC)NCC(=O)Nc1ncc(Oc2cc(I)c(OC)cc2C(C)C)c(N)n1	Active	–	–
